Here are results for 5 compounds from patent US20250114390A1, “MULTI-ACTIVE TABLET IN THE TREATMENT AND CONTROL OF SEVERE CHRONIC PAIN AND METHOD OF PREPARATION” (LABORATORIOS SILANES S.A. DE C.V., priority 2023, published 2025).

≈ marks a conversion by molar mass, not a printed value. Like-named read-outs stand apart in the source and are kept apart here.

The conditions of data set [1]: cited from earlier work.
The conditions of data set [2]: cited from earlier work. This is another data set of the same source.
In the next data set the test system is healthy subjects. In words: Adverse events in the comparative bioavailability clinical trial. Particulars: single dose. An excerpt:
The study was open, longitudinal, prospective, with a 3×6×3 design, with random assignment, single dose, three treatments, three periods and six sequences under fasting conditions, in a healthy Mexican female and male population with a washout time for drug elimination of one week (07 days) between each period.
Due to the COVID-19 health emergency, the 42 research subjects were divided into two hospitalization groups: Group 1 with 22 research subjects and Group 2 with 20 research subjects. After fasting for at least 10 hours, a blood sample was taken at time 0.00 hours, and a dose of celecoxib/pregabalin/vitamin B, 200 mg/150 mg tablets/vitamin B12 500 μg/vitamin B1 100 mg/vitamin B6 50 mg was administered, in a single dose of the test medicament or the reference medicament as monotherapy (celecoxib 200 mg capsule or pregabalin 150 mg capsule) according to prior randomization, orally with 250 ml of water at room temperature. After administration of the corresponding medicament, another 17 samples were taken at the following times: 0.50, 0.75, 1.00, 1.33, 1.66, 2.00, 2.50, 3.00, 3.50, 4.00, 6.00, 8.00, 10.00, 14.00, 24.00, 36.00- and 48.00-hours post-dose.

As usually defined, the Solubility is how much of the substance goes into solution per volume. `Cc1ccc(-c2cc(C(F)(F)F)nn2-c2ccc(S(N)(=O)=O)cc2)cc1` [Celecoxib]: the Cmax of celecoxib in data set [1] (Author: Center for Drug Evaluation, 1999) is 600.0 ± 900.00 ng/mL; in data set [1] (Author: Laboratorios Silanes), 602.685 ± 301.48 ng/mL; in data set [1] (Author: Lilitkarntrakul, P), 686.83 ± 211.35 ng/mL; in data set [1] (Author: Paulson, S), 806.0 ± 411.0 ng/mL; in data set [1] (Author: Sy-Yeuan J), 703.86 ± 329.91 ng/mL. Further, the ABC0-t of celecoxib in data set [1] (Author: Laboratorios Silanes) is given as 5593.760 ± 2158.606 ng/mL*h; in data set [1] (Author: Lilitkarntrakul, P), 5157.12 ± 1499.46 ng/mL*h; in data set [1] (Author: Paulson, S), 5994.0 ± 2393.0 ng/mL*h; in data set [1] (Author: Sy-Yeuan J), 7267.48 ± 2077.68 ng/mL*h. Also, the Solubility in data set [2] is 3300 µg/mL (≈ 8.65 mM). In addition, in data set [2], the “Solubility (biopharmaceutical classification)” value is listed as “low solubility”.
For `CC(C)C[C@H](CN)CC(=O)O` [Pregabalin], in the data set on healthy subjects, the “Adverse events probably related to dosing, total” value amounted to 16 events; the Events of dizziness is 13 events; the Events of headache amounted to 1 events; the Events of paresthesia is listed as 1 events. The “Events of visual disturbances” value in the data set on healthy subjects turned out to be 1 events. Also, the “Permeability (biopharmaceutical classification)” value in data set [2] (not told) is on record as “high permeability”.
For orientation: pKa means the negative logarithm of the acid dissociation constant. `Cc1ncc(CO)c(CO)c1O` [Pyridoxine]: in data set [2] (air, light), the “Stability (description)” value is “stable in air and slowly decomposes with light”. In addition, the pKa in data set [2] is 9.4. Besides, in data set [2] (in words), the Solubility in alcohol entry is given as “slightly soluble”, the “Solubility in diethyl ether” value was “almost insoluble” and the Solubility in water entry is recorded as “Easily soluble”.
Turning to `Cc1ncc(C[n+]2csc(CCO)c2C)c(N)n1` [Thiamine], in data set [2], the pKa is given as 15.5. For the same compound, in data set [2] (in words), the Solubility in chloroform result is “very slightly soluble”, the “Solubility in diethyl ether” value is “almost insoluble”, the Solubility in ethanol result is given as “slightly soluble” and the “Solubility in hot water” value is “Freely soluble”. Also, in data set [2] (in words), the Solubility in methanol result is “slightly soluble” and the Solubility in water result was “slightly soluble”.
Consider Cyanocobalamin, for which the pH in data set [2] (1 g/L at 20° C.) is recorded as 6.0. For the same compound, in data set [2], the Solubility was 12000 µg/mL and the pKa is recorded as 1.82. In data set [2] (in words), the Solubility in acetone entry is “almost insoluble”, the Solubility in alcohol entry was “Soluble”, the Solubility in chloroform result is reported as “almost insoluble” and the “Solubility in diethyl ether” value is reported as “almost insoluble”. For the same compound, the Solubility in water result in data set [2] (in words) is “slightly soluble”.
